A melting point compilation (Tetko et al.; mined from patent text by program, amines drawn as free bases though some values may be those of a salt)

Compound `COc1cccc2c(Nc3ccccc3C)nc(N3CCCC3)nc12` has a melting point of 181 to 183 °C.
For `O=C(Nc1nc[nH]n1)c1ccc(-c2ccc3nnn(Cc4ccc5ncccc5c4)c3n2)cc1F`, the melting point was 265 to 267 °C.
For `CC(C)S(=O)(=O)c1ccc(Oc2ccc([N+](=O)[O-])c(NCCC#N)c2)c(Cl)c1`, the melting point was 140 °C.
With `c1ccc(-c2cnc(NC3=NCC4(CN5CCC4CC5)O3)s2)cc1` (stereo unspecified) the melting point was 187 to 189 °C.
`N#CC(=NOCF)C(N)=O` gave a melting point of 124 to 125 °C.
`CCc1cccc(C)c1CNc1nc(Br)cc(N)c1[N+](=O)[O-]` showed a melting point of 126 to 128 °C.
For `Nc1cccc(Nc2ncnc3[nH]cc(C(=O)c4ccccc4)c23)c1`, the melting point was 280 to 282 °C.
`Cc1cc(C)c(COc2cccnc2N)c(C)c1` gave a melting point of 160 to 166 °C.
Compound `CN(C=O)c1cc(F)ccc1C(=O)CS(C)(=O)=O` has a melting point of 94.5 to 95.5 °C.
Compound `CC(C)(C)c1nc(-c2ncn3c2COc2cc(F)ccc2-3)no1` has a melting point of 133 to 135 °C.
Compound `Cc1ccc(S(=O)(=O)N2CC[C@@H](O)C2)cc1` has a melting point of 108 to 112 °C.
In the case of `NC1=c2c3c(ccc2=CCS1)CCCN3`, the melting point is reported as 214 to 216 °C.
With `COCOc1c(OC)cc(C=O)cc1OC` the melting point was 52 to 53 °C.
`Cn1nc(-c2ccc3c(c2)CCNCC3)ccc1=O` showed a melting point of 183 to 185 °C.
Compound `OCCCCCCCCOc1ccc2ccccc2c1` has a melting point of 67 to 69 °C.
Compound `O=C(C=Cc1ccc(O)c(O)c1O)OCCc1ccccc1` has a melting point of 144 °C.
With `CNC(=O)NCc1cccc(-c2csc(N=C(N)N)n2)n1` the melting point was 205 to 206 °C.
For `CC(c1ccc(F)cc1)n1ncc(-c2ccc(S(C)(=O)=O)cc2)c(-c2ccc(F)cc2)c1=O` (stereo unspecified), the melting point was 162 to 164 °C.
Compound `COc1cccc(CNC(=O)c2[nH]c3ccc(Cl)cc3c2S(=O)(=O)c2ccccc2)c1` has a melting point of 203 to 204 °C.
Work on `Cc1cc(-n2cncn2)ccc1N` yielded a melting point of 122 to 125 °C.
Work on `CCC(=O)N1N=C(c2ccc(N)cc2)c2cc(Cl)ccc2CC1C` (stereo unspecified) yielded a melting point of 118 to 120 °C.
`Cn1nc(N)nc1NCCSCc1cccc(CN2CCCCC2)c1` gave a melting point of 92 to 93 °C.
`O=C(Cc1ccncc1)Nc1cccc(-c2ccnc3c(C(=O)c4cccs4)cnn23)c1` gave a melting point of 130 to 131 °C.
In the case of `NS(=O)(=O)c1cccc(-c2noc(-c3cnn4c(C(F)F)cc(-c5ccc(Cl)cc5)nc34)n2)c1`, the melting point is reported as 231 °C.
Compound `Cn1c(OC(F)F)n[nH]c1=O` has a melting point of 111 °C.
Work on `CCCCCCCCCCCCn1sncc1=O` yielded a melting point of 68 to 70 °C.
Work on `O=C(CCc1ccccc1)N[C@H](Cc1ccc(C(F)(F)F)cc1)[C@@H](O)c1ccc(F)c(F)c1` (racemic) yielded a melting point of 114 to 115 °C.
Compound `CCCCCCCCOc1ccc(-c2ccc(-c3ccc4c(c3)C(CC)(CC)c3cc(-c5ccc(-c6ccc(OCCCCCCCC)cc6)cc5)ccc3-4)cc2)cc1` has a melting point of 146 °C.
For `Cc1ccc(C)n1CCNC(=S)Nc1ccc(C(=O)O)cc1`, the melting point was 174 to 175 °C.
`C=C(C)C(=O)N1c2ccc(OC)cc2CC1C(=O)O` (stereo unspecified) gave a melting point of 108 to 111 °C.
`CCNC1CC=C(c2c[nH]c3cc(NC(=N)c4cccs4)ccc23)CC1` (stereo unspecified) gave a melting point of 95 to 97 °C.
Work on `CN(C)c1ncn2c1C[N+]([O-])=C(c1ccccc1F)c1cc(Cl)ccc1-2` yielded a melting point of 203 to 206 °C.
For `COCC1CN(c2ccc(C3CC4C=CC3C4)cc2)C(=O)O1` (racemic), the melting point was 46 to 48 °C.
Work on `Cc1cc(C2(c3ccc(Cl)cc3)OCCS2)ccc1NC(=O)c1cccc(I)c1C(=O)NC(C)C` (stereo unspecified) yielded a melting point of 214 to 217 °C.
Compound `COc1ccc2nc(-c3ccc(C=C4C(=O)C5(C)CCC4C5(C)C)cc3)[nH]c2c1` (stereo unspecified) has a melting point of 138 to 142 °C.
With `Cc1cccc2c(Cl)nc(Cl)nc12` the melting point was 180 to 230 °C.
Work on `CCOC(=O)/C=C/c1cn(-c2ccc(C(F)(F)F)cn2)nc1C(C)CC` (stereo unspecified) yielded a melting point of 75 to 76 °C.
For `CCCC(=O)Nc1nc(CN2CCN(C(c3ccccc3)c3ccccc3)CC2)cs1`, the melting point was 128 to 135 °C.
For `CCOC(=O)/C(=C\c1ccc([N+](=O)[O-])cc1)P(=O)(OCC)OCC`, the melting point was 60 to 61 °C.
In the case of `COc1ccc(OC)c(S(=O)(=O)Nc2onc(C)c2Br)c1`, the melting point is reported as 118 to 120 °C.
In the case of `COc1cc(C)cc2c(=O)oc3c(c12)C(=O)c1cccc(O)c1C3=O`, the melting point is reported as 282 to 292 °C.
With `CCCc1c(OCCCCC#N)ccc(C(=O)c2ccccc2O)c1O` the melting point was 81 to 82 °C.
`CC(=O)N1CCc2sc(C)c(C(=O)CCCN3CCC(c4noc5cc(F)ccc45)CC3)c2C1` gave a melting point of 116 to 118 °C.
In the case of `CCCN=C(N)Nc1ccnc(S(C)=O)n1` (stereo unspecified), the melting point is reported as 179 to 180 °C.
In the case of `CC(C)(CCO)c1ccc2ncc(C(=O)NCc3ccc(Cl)cc3)c(O)c2c1`, the melting point is reported as 184 to 192 °C.
With `Cn1c(=O)c(-c2c(Cl)cccc2Cl)cc2cnc(S(C)(=O)=O)nc21` the melting point was > 290 °C.
In the case of `CCOC(=O)c1cc(C(=O)NC)nc(C(=O)NC)c1N`, the melting point is reported as 185 to 186 °C.
`COc1cc(NC(=O)Nc2ccccc2)c(O)c(C(C)(C)C)c1` gave a melting point of 147 to 149 °C.
In the case of `c1csc(Cn2ccnc2C2=NCCN2)c1`, the melting point is reported as 101 to 103 °C.
With `Cc1cnc(CCNC(=O)c2ccccc2NC(=O)c2cccc(C(F)(F)F)c2)[nH]1` the melting point was 168 to 172 °C.
With `Cc1ccc2nc(NC(=O)c3ccc(C(C)(C)CCc4noc(=O)[nH]4)cc3)cn2c1` the melting point was 267 to 268 °C.
Work on `CC(C)C(NC(=O)OCc1ccccc1)C(=O)NC(Cc1ccc(OCCN2CCOCC2)cc1)C(=O)C(F)(F)C(=O)NCc1ccccc1` (stereo unspecified) yielded a melting point of 142 °C.
Work on `Cc1cc(C#N)cc(C)c1Nc1nc(Nc2ccc(C#N)cc2)nc(Cl)c1Br` yielded a melting point of 259 to 260 °C.
`Cc1[nH]cnc1CC1CCc2[nH]c3c(F)cccc3c2C1=O` (stereo unspecified) showed a melting point of 135 to 140 °C.
Compound `CCCc1c(C(=O)C(C)C)c2ccc(C(N)=O)cc2n1Cc1ccccc1NC(=O)NC` has a melting point of 222 to 223 °C.
In the case of `Cc1c(CC(=O)NCCCO)cc(-c2ccc(S(C)(=O)=O)cc2)n1-c1ccc(F)cc1`, the melting point is reported as 105 °C.
With `CCOC(=O)c1ccc(-c2ccc(OC)c(-c3cccc([N+](=O)[O-])c3)c2)cc1` the melting point was 106 to 108 °C.
`CN(C)C(=O)Nc1c(C(=O)c2occc2CO)[nH]c2cc(Cl)ccc12` showed a melting point of 238 °C.
Compound `Nc1nc(NCCO)c(Cl)nc1[N+](=O)[O-]` has a melting point of 196 to 197 °C.
Compound `O=C(CS(=O)Cc1ccco1)NCCCOc1cccc(C2OCCO2)c1` (stereo unspecified) has a melting point of 95.3 to 96.1 °C.
With `CCCNC(=O)Nc1ccc(C(=O)OC)c(NC(=O)NC(C)C)c1` the melting point was 94 to 95 °C.
In the case of `CCc1nc2cc(C(N)=O)c(Cl)cc2n1-c1ccc(CCOC(=O)NS(=O)(=O)c2ccc(C)cc2)cc1`, the melting point is reported as 170 to 175 °C.
With `N#CC1OC12CCN(C(=O)c1ccc(F)c(Cl)c1)CC2` (stereo unspecified) the melting point was 100 to 101 °C.
`Fc1cccc(-c2cncnc2)c1` showed a melting point of 63 to 63.5 °C.
For `C=CCNC(=O)C(C)=Cc1cc([N+](=O)[O-])ccc1Cl`, the melting point was 111 to 112 °C.
Compound `CN1CCN(c2cccc3c2C[C@H](NC(=O)c2ccc(C4CCCCC4)cc2)CC3)CC1` has a melting point of 224 to 226 °C.
Work on `COC(=O)C=Cc1ccc(OCc2nc(-c3ccccc3)c(-c3ccccc3)o2)cc1` yielded a melting point of 159 to 161 °C.
For `Nc1ccc(C(=O)N2CCC(c3[nH]nc4c3C(=O)c3c(NC(=O)NN5CCOCC5)cccc3-4)CC2)cc1`, the melting point was 198 to 200 °C.
With `CCCCCCCCCCN(O)C(=O)NCCC(=O)OC` the melting point was 77 to 78 °C.
Work on `CS(=O)(=O)Oc1cnc2cc(OC(F)(F)F)ccc2c1O` yielded a melting point of 125 to 127 °C.
Work on `Cn1c(COc2ccc(CC3SC(=O)NC3=O)cc2)nc2ccc(Oc3ccc(NC(=O)c4ccc5ccccc5c4)cc3)cc21` (stereo unspecified) yielded a melting point of 221 to 223 °C.
`COc1ccc(-c2cc3ccc(Cl)cc3[nH]c2=O)cc1` gave a melting point of 256 to 257 °C.
With `Nc1cc(Cl)cc(Cl)c1C(=O)NCc1ccc(F)cc1` the melting point was 89 to 94 °C.
`O=C(NC1CC=CC1)OCc1ccccc1` showed a melting point of 56 to 57 °C.
With `Cc1cc(C)c(-n2ccc3c(Cl)nn(C)c(=O)c32)c(C)c1` the melting point was 170 to 171 °C.
`CCCCC(CC)C(=O)Nc1ccc(-n2nc3ccc(C(F)(F)F)cc3n2)c(O)c1` (stereo unspecified) showed a melting point of 179 to 181 °C.
With `CC(=O)NC1Cc2ccc(C(=O)CCl)cc2C1` (stereo unspecified) the melting point was 173 to 174 °C.
In the case of `CC(=O)c1cc(-c2ccc(C(F)(F)F)cc2)oc1C`, the melting point is reported as 87 to 88 °C.
In the case of `Cc1c(C(=O)O)ccc(O)c1O`, the melting point is reported as 200 to 201 °C.
In the case of `Cc1ccccc1S(=O)(=O)NC(=O)CCc1cc(OC(C)C)nn1Cc1ccc(Cl)cc1Cl`, the melting point is reported as 165 to 166 °C.
In the case of `CCOC(=O)c1cnc2ccc(F)cc2c1Cl`, the melting point is reported as 55 to 57 °C.
`N=C(Nc1ccc2c(c1)CNCCO2)c1ccsc1` gave a melting point of 150 to 152 °C.
In the case of `COc1ccc(C(=O)c2cccc(F)c2)cc1C(=O)O`, the melting point is reported as 200 °C.
Compound `CCCCCCCCCCCCCCCCOCC(O)CN1CCC(C)CC1` (stereo unspecified) has a melting point of 84 to 85 °C.
`CC(C)OC(=O)C(C)Oc1ncn(-c2ccc(Cl)cc2Cl)n1` (stereo unspecified) gave a melting point of 55 to 57 °C.
With `NC(N)=Nc1nc(N2CCOCC2)nc2c1ccc1ccccc12` the melting point was 235 °C.
For `O=c1[nH]c2ccccc2c2c(CCC3CCNCC3)n(-c3ccccc3)nc12`, the melting point was 250 to 252 °C.
For `COc1ccccc1CN[C@H]1CCCN(CC=Cc2ccccc2)[C@H]1c1ccccc1` (relative stereo), the melting point was 54 to 58 °C.
Compound `COC(OC)c1cnc(C)nc1N` has a melting point of 102 to 104 °C.
In the case of `Cc1nncn1-c1ccc(Cl)cc1C(=O)c1ccccc1Cl`, the melting point is reported as 148 °C.
Work on `Cc1noc(NS(=O)(=O)c2sccc2-c2ccccc2)c1Br` yielded a melting point of 105 to 107 °C.
For `COc1cc(CNc2c(NC(C)(C)C)c(=O)c2=O)cc(OC)c1`, the melting point was 222 to 223 °C.
`Cc1noc(-c2cc3c4ccccc4n(CCCCl)c3cn2)n1` showed a melting point of 180 to 185 °C.
In the case of `COc1ccc(C(CC(=O)O)N2C(=O)c3cc(Cl)c(Cl)cc3C2=O)cc1` (stereo unspecified), the melting point is reported as 182 to 185 °C.
Work on `CCC12CCC3=C(CCc4cc(O)ccc43)C1CCC2=O` (stereo unspecified) yielded a melting point of 235 to 239 °C.
In the case of `CCOC(=O)c1ncn2c1CNC(=O)c1cc(OC)ccc1-2`, the melting point is reported as 240 °C.
`Cc1[nH]c(C(=O)NCCCN(C)C)c(C)c1-c1nc2ccc(C(=O)c3ccccc3)cc2[nH]1` gave a melting point of 238 to 248 °C.
`CCC(=O)Nc1cc(S(=O)c2ccccc2)ccc1NC(=NC(=O)OC)NC(=O)OC` (stereo unspecified) gave a melting point of 193 to 195 °C.
`O=C1OC(O)(Nc2ccccc2Br)C(c2ccccc2)C1c1ccccc1` (stereo unspecified) gave a melting point of 162 to 164 °C.
Compound `Cc1ccc(-c2ccc3c(c2)C=C(C(=O)Nc2ccc(CN(C)C4CCOCC4)cc2)CCN3C=O)cc1` has a melting point of 229 to 230 °C.
Work on `CCOC(=O)C1=C(COCC2CO2)NC(C)=C(C(=O)OC)C1c1cccc(Cl)c1Cl` (stereo unspecified) yielded a melting point of 103 to 104 °C.
